# Source: patent US20080221134A1, “8-ALKYNYLXANTHINES AND DERIVATIVES” (priority 2006, published 2008)
# Where two headings read alike, the source gives them in different places.
# Experiments:
# [1] = biological target: T1, A1-adenosine receptor human recombinant (Homo sapiens, UniProt P30542); assay: Radioligand binding assay 1, human recombinant A1 adenosine receptor; conditions: [3H]CCPA
# T1 construct: expressed in transfected cells
# T1 sequence (P30542 1-326): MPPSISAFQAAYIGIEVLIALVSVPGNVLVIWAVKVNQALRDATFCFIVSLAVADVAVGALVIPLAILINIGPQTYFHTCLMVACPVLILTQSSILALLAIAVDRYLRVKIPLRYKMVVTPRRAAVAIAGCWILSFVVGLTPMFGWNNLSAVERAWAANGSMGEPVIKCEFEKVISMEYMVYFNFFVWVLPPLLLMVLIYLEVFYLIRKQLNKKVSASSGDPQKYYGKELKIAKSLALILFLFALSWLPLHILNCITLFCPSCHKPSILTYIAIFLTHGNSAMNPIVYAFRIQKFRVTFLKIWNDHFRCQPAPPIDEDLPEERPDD
# Method: (§1) Rat brain preparations were used for A1- and A2A adenosine receptor (AR) and human recombinant cell samples for A1-, A2A- and A3 adenosine receptor radioligand binding studies. Affinity and selectivity was tested in displacement experiments with following radioligands: [^3H]CCPA for A1-adenosine receptors, [^3H]MSX-2 for A2A-receptors and [^3H]PSB-11 for A3-receptors. Results of these experiments are depicted in table 2b (human data) and table 2a (rat data). Radioligand binding test systems are e.g. generally described by Muller et al., Curr. Pharm. Des., 1996, 2, 501 and Weyler et al., ChemMedChem 2006, 1, 891 and references cited therein) These documents are incorporated herein by reference.
# [2] = biological target: T2, A2A-adenosine receptor human recombinant (Homo sapiens, UniProt P29274); assay: Radioligand binding assay 1, human recombinant A2A adenosine receptor
# T2 construct: expressed in transfected cells
# T2 sequence (P29274 whole entry): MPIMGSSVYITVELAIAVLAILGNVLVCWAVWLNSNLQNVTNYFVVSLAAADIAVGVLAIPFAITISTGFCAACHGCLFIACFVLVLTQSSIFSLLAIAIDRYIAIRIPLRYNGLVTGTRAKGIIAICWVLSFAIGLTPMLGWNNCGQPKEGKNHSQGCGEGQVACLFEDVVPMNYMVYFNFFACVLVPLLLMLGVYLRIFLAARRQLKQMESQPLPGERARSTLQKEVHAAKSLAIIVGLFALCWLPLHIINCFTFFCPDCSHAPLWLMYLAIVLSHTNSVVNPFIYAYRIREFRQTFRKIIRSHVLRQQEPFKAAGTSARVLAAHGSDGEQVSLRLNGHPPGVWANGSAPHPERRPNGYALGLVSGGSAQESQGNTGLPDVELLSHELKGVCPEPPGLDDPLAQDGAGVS
# Method: as §1
# Rat A1 AR = biological target: T3, Rat A1 AR (Rattus norvegicus, UniProt P25099); assay: Radioligand binding assay 1, rat A1 adenosine receptor; conditions: rat cortex, [3H]CCPA
# T3 construct: Rat brain preparations were used for A1- and A2A adenosine receptor (AR); from tissue; host or cells: rat cortex
# T3 sequence (P25099 1-326): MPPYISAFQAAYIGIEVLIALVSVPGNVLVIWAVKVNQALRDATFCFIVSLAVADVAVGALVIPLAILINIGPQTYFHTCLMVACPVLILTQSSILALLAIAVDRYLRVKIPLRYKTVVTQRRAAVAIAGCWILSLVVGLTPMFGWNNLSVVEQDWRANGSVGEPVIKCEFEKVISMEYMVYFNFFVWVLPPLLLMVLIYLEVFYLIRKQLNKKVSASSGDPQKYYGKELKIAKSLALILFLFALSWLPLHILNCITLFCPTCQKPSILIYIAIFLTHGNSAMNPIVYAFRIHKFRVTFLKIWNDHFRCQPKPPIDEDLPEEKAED
# Method: as §1
# Rat A2A AR = biological target: T4, Rat A2A AR (Rattus norvegicus, UniProt P30543); assay: Radioligand binding assay 1, rat A2A adenosine receptor; conditions: rat striatum, [3H]MSX-2
# T4 construct: A2A adenosine receptors from rat striatum; from tissue; host or cells: rat striatum
# T4 sequence (P30543 whole entry): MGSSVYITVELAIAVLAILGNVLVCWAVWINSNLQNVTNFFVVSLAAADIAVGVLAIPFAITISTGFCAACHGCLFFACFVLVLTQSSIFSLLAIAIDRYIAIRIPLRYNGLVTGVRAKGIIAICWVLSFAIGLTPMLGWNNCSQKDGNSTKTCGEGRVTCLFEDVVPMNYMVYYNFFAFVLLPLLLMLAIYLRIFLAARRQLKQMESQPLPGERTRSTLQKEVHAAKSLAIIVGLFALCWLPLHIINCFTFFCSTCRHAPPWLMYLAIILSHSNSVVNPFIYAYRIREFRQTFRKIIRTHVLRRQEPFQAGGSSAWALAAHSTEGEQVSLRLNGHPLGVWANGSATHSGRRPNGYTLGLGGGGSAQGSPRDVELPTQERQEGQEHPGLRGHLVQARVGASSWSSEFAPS
# Method: as §1
# [3] = human recombinant, [3H]MSX-2, read-out: A2A-adenosine receptor human recombinant [3H] MSX-2 Ki
Compound,Ki [1] [µM],"Ki [2, 3] [µM]",also measured
C#CCn1c(=O)c2c(nc(C#Cc3cccc(OCCOC)c3)n2C)n(C)c1=O [drawing 559],> 1,0.0289 ± 0.0013,–
C#CCn1c(=O)c2c(nc(C#Cc3cccc(OC)c3)n2C)n(CC=C)c1=O [drawing 571],–,0.0356 ± 0.0109,–
C#CCn1c(=O)c2c(nc(C#Cc3cccc(OCc4ccoc4)c3)n2C)n(C)c1=O [drawing 562],> 1,< 0.01,–
C#CCn1c(=O)c2c(nc(C#Cc3ccccc3)n2C)n(C)c1=O [drawing 552],–,–,"Ki ([2]; no full inhibition curve due to limited water-solubility, read-out: A2A-adenosine receptor human recombinant [3H] MSX-2 Ki, calculated by extrapolation): 0.314 ± 0.071 µM"
C#CCn1c(=O)c2c(nc(C#Cc3cccc(C)c3)n2C)n(C)c1=O [drawing 555],> 10,0.225 ± 0.052,–
C#CCn1c(=O)c2c(nc(C#Cc3cccc(OC)c3)n2C)n(CC)c1=O [drawing 565],> 3,0.0648 ± 0.012,–
C#CCn1c(=O)c2c(nc(C#Cc3cccc(OC)c3)n2C)n(C)c1=O [drawing 553],> 10,0.608 ± 0.111,–
C#CCn1c(=O)c2c(nc(C#Cc3cccc(OCCCN(C)C)c3)n2C)n(C)c1=O [drawing 558],1.74 ± 0.546,0.0116 ± 0.0021,–
C#CCn1c(=O)c2c(nc(C#Cc3ccccc3)n2C)n(C)c1=O [drawing 452],–,–,Ki (Rat A1 AR): > 1 µM; Ki (Rat A2A AR): 0.186 ± 0.06 µM
C#CCn1c(=O)c2c(nc(C#Cc3cc(C)c(C)cc3C)n2C)n(C)c1=O,–,–,Ki (Rat A1 AR): > 10 µM; Ki (Rat A2A AR): 4.34 ± 0.84 µM
C#CCn1c(=O)c2c(nc(C#Cc3ccc(OC)c(OC)c3)n2C)n(Cc2ccno2)c1=O,–,–,Ki (Rat A1 AR): > 1 µM; Ki (Rat A2A AR): 0.0179 ± 0.0055 µM
C#CCn1c(=O)c2c(nc(C#Cc3cccc(O)c3)n2C)n(C)c1=O [drawing 475],–,–,Ki (Rat A1 AR): 0.425 ± 0.099 µM; Ki (Rat A2A AR): 0.173 ± 0.035 µM
C#CCn1c(=O)c2c(nc(C#Cc3ccc(OCC)c(OCC)c3)n2C)n(C)c1=O,–,–,Ki (Rat A1 AR): > 1 µM; Ki (Rat A2A AR): 0.951 ± 0.224 µM
C#CCn1c(=O)c2c(nc(C#Cc3ccc4c(c3)OCO4)n2C)n(C)c1=O [drawing 561],–,0.0523 ± 0.0134,–
C#CCn1c(=O)c2c(nc(C#Cc3cccc(OC)c3)n2C)n(CCO)c1=O [drawing 491],–,–,Ki (Rat A1 AR): > 1 µM; Ki (Rat A2A AR): 0.103 ± 0.015 µM

# Now from value to compound, other results behind:
Ki [1] [µM],"Ki [2, 3] [µM]",Compound,also measured
> 1,0.0139 ± 0.0008,C#CCn1c(=O)c2c(nc(C#Cc3ccc(OC)c(OC)c3)n2C)n(Cc2ccco2)c1=O [drawing 579],–
> 1,0.127 ± 0.019,C#CCn1c(=O)c2c(nc(C#Cc3ccc(OC)c(OC)c3)n2C)n(C(C)C)c1=O [drawing 586],–
> 1,0.0322 ± 0.0205,C#CCn1c(=O)c2c(nc(C#Cc3ccc(OC)c(OC)c3)n2C)n(CC#N)c1=O [drawing 576],–
≥ 1,0.2 ± 0.099,C#CCn1c(=O)c2c(nc(C#Cc3ccc(OC)c(OC)c3)n2C)n(CC(C)C)c1=O [drawing 585],–
–,0.273,C#CCn1c(=O)c2c(nc(C#Cc3ccc(OC)c(OC)c3)n2C)n(CC(C)=O)c1=O [drawing 592],–
> 1,0.058 ± 0.0133,C#CCn1c(=O)c2c(nc(C#Cc3ccc(OC)c(OC)c3)n2C)n(CCCC#N)c1=O [drawing 582],–
> 1,0.0553 ± 0.0043,C#CCn1c(=O)c2c(nc(C#Cc3ccc(OC)c(OC)c3)n2C)n(CCOC)c1=O [drawing 574],–
> 1,0.0598 ± 0.0357,C#CCn1c(=O)c2c(nc(C#Cc3ccc(OC)c(OC)c3)n2C)n(CCO)c1=O [drawing 575],–
–,0.0825,C#CCn1c(=O)c2c(nc(C#Cc3ccsc3)n2C)n(CC)c1=O [drawing 599],–
–,0.299 ± 0.072,C#CCn1c(=O)c2c(nc(C#Cc3cccc(OCCCO)c3)n2C)n(C)c1=O [drawing 596],–
> 1,0.0843 ± 0.031,C#CCn1c(=O)c2c(nc(C#Cc3ccc(OC)c(OC)c3)n2C)n(CCC#N)c1=O [drawing 577],–
–,0.569 ± 0.0107,C#CCn1c(=O)c2c(nc(C#Cc3cccc(OC)c3)n2C)n(CCN(C)C)c1=O [drawing 594],–
–,0.0821 ± 0.026,C#CCn1c(=O)c2c(nc(C#Cc3cncn3C)n2C)n(CC)c1=O [drawing 600],–
–,0.054,C#CCn1c(=O)c2c(nc(C#Cc3ccc(OC)c(OC)c3)n2C)n(C(C)C(C)=O)c1=O (centres unmarked) [drawing 591],–
–,0.0963 ± 0.0031,C#CCn1c(=O)c2c(nc(C#Cc3ccc(OC)c(OC)c3)n2C)n(CCC2CO2)c1=O (centres unmarked) [drawing 580],–
